The values below are quoted from earlier work in EP0238198A2, “Method of modifying the lipid structure function and expression of cell membranes and pharmaceutical compositions for use therein” (Habib, Nagy Adly, priority 1986, dated 1987).

This data set concerns hepatoma cell lines. To be noted: in vitro; cited from earlier work.

For `CCCCCCCCC1=C(CCCCCCCC(=O)O)C1` [sterculic acid], the growth inhibition result is “growth inhibition” and the saturation index entry is recorded as “increase in their saturation index”.
